{"source": "paper PMC9078933", "about": "(2018)", "tested_on": "ATB1 (DNA, aptamer) ATATCTTTTCCTACTCATCTTTGAATAACTACCGGGCATTACTTTCTGGCCTCCCTGCCTCCTAAATCACCAATTAATTCGCGGCCCCCCG", "assay": "fluorescence recovery, aptamer-QD on graphene oxide", "details": "phosphate buffer pH 7.2, 0.5% BSA, room temperature; tested concentration not stated"}
{"smiles": "C[C@@H]1Cc2c(Cl)cc(C(=O)N[C@@H](Cc3ccccc3)C(=O)O)c(O)c2C(=O)O1", "values": [{"measurement": "binding", "result": "no"}]}
